Assay: solubility of the active ingredient according to pH (FIG. 1)
Format: physicochemical
Settings: at acid pHs; increases as pH rises (FIG. 1)
Text: The main aim of the invention was to obtain an oral form in which the rate of release of the active ingredient is controlled and reproducible. In fact, in the current form the dissolution of the active ingredient varies greatly according to pH. This characteristic, associated with gliclazide itself, poses absorption problems for the active ingredient. The solubility is very weak at acid pHs and increases as pH rises.
FIG. 1 represents the phenomenon of the solubility of the active ingredient varying according to pH.

solubility of the active ingredient: very weak
Compound: Cc1ccc(S(=O)(=O)NC(=O)NN2CC3CCCC3C2)cc1 (stereo not shown) [gliclazide, Gliclazide]

Reference: patent US6733782B1, “Core tablet for controlled release of gliclazide after oral administration” (Les Laboratories Servier, priority 1999, dated 2004)
